# Data as given in PMC12203862, “BroadAMP-GPT: AI-Driven generation of broad-spectrum antimicrobial peptides for combating multidrug-resistant ESKAPE pathogens” (Gut Microbes, 2025).
# Like-named read-outs stand apart in the source and are kept apart here. Residues, ends and D or L forms follow the SMILES beside them.
# What was measured:
# S. enteritis S1 = experiment: organism not typed; assay type: cell-based
# Procedure: (§1) Bacterial strains and growth conditions: All Gram-negative and Gram-positive bacterial strains (Supplementary Table S8) were cultured in Luria-Bertani (LB) or trypticase soy broth (TSB) agar plates, respectively, and incubated overnight at 37 °C unless specifically indicated. A single colony of the tested bacterial strains was inoculated into medium broth with shaking at 220 rpm for further experiments.
# (§2) Minimal inhibitory concentrations: Antimicrobial susceptibility testing was performed by broth microdilution method for AMPs against Gram-positive and Gram-negative pathogens above mentioned, following the methods of document CLSI M100-ED34.[43] The MICs were defined as the lowest concentrations that inhibit visible growth of the tested bacteria. E. coli ATCC 25,922 and S. aureus ATCC 29,213 were served as quality controls.
# S. aureus ATCC 29213 = experiment: microbe, parasite or virus in culture; assay type: cell-based
# E. faecalis J2 = experiment: microbe, parasite or virus in culture; assay type: cell-based
# Procedure: as §1, §2
# E. faecalis JH2-2 = experiment: microbe, parasite or virus in culture; assay type: cell-based
# Procedure: as §1, §2
# E. faecium HFY01 = experiment: microbe, parasite or virus in culture; assay type: cell-based
# Procedure: as §1, §2
# E. faecalis ES01 = experiment: microbe, parasite or virus in culture; assay type: cell-based
# Procedure: as §1, §2
# P. aeruginosa PA14 = experiment: microbe, parasite or virus in culture; assay type: cell-based
# Procedure: as §1, §2
# A. baumannii AB11 = experiment: microbe, parasite or virus in culture; assay type: cell-based
# Procedure: as §1, §2
# S. agalactiae DL03 = experiment: microbe, parasite or virus in culture; assay type: cell-based
# Procedure: as §1, §2
# P. aeruginosa PAO1 = experiment: microbe, parasite or virus in culture; assay type: cell-based; settings: Pseudomonas aeruginosa; Table 1; P. aeruginosa PAO1; broth microdilution; read-out: MIC
# Procedure: as §1, §2
# S. aureus YZSA-21 = experiment: microbe, parasite or virus in culture; assay type: cell-based
# Procedure: as §1, §2
# K. pneumoniae 9-1 = experiment: microbe, parasite or virus in culture; assay type: cell-based
# Procedure: as §1, §2
# S. pyogenes DL02 = experiment: microbe, parasite or virus in culture; assay type: cell-based
# Procedure: as §1, §2
# S. aureus M147-2 = experiment: microbe, parasite or virus in culture; assay type: cell-based
# Procedure: as §1, §2
# E. faecium MC38 = experiment: microbe, parasite or virus in culture; assay type: cell-based
# Procedure: as §1, §2
# E. faecium QF31 = experiment: microbe, parasite or virus in culture; assay type: cell-based
# Procedure: as §1, §2
# S. aureus M92-1 = experiment: microbe, parasite or virus in culture; assay type: cell-based
# Procedure: as §1, §2
# S. aureus YZSA-24 = experiment: microbe, parasite or virus in culture; assay type: cell-based
# Procedure: as §1, §2
# S. aureus YZSA-15 = experiment: microbe, parasite or virus in culture; assay type: cell-based
# Procedure: as §1, §2
# E. faecalis SF23-1 = experiment: microbe, parasite or virus in culture; assay type: cell-based; settings: Enterococcus faecalis, SF231; Table 1; E. faecalis SF23-1; ermB, tetL, cfr; broth microdilution; read-out: MIC
# Procedure: as §1, §2
# E. coli ATCC 25922 = experiment: microbe, parasite or virus in culture; assay type: cell-based
# Procedure: as §1, §2
# A. baumannii 7979 = experiment: microbe, parasite or virus in culture; assay type: cell-based
# Procedure: as §1, §2
# S. suis SH0918 = experiment: microbe, parasite or virus in culture; assay type: cell-based
# Procedure: as §1, §2
# S. suis P1/7 = experiment: microbe, parasite or virus in culture
# Procedure: as §1
# as §2, with “bacteria.” for “bacteria. E. coli ATCC 25,922 and S. aureus ATCC 29,213 were served as quality controls.”
# HEp-2 = experiment: Cytotoxicity, CCK-8; assay type: cell-based, human
# Procedure: (§3) The cytotoxicity of selected AMPs to human laryngeal carcinoma epithelial cell (HEp-2) and colorectal adenocarcinoma cell (Caco-2) lines was evaluated using the CCK-8 method as previously described.[55] The cells were cultured in high-glucose dulbecco’s modified eagle medium (DMEM) supplemented with 10% fetal bovine serum (FBS) and 1% penicillin-streptomycin. Cells were inoculated in 96-well sterile microtiter plate at 5000 cells/100 μL. After cultured (37℃, 5%CO2) for 24 h, cells were treated with AMPs at concentrations ranging from 8 to 128 μg/mL for another 48 h. Afterward, the culture medium was replaced by fresh DMEM medium containing 10% CCK-8 and incubated for 1 h. The absorbance of the solution was measured at 450 nm by a microplate reader. Cell viability was calculated as: % cell viability = [(Abssample - Absblank)/(Absnegative - Absblank)]×100%. Each experiment was carried out with three replicates.
# Caco-2 = experiment: Cytotoxicity, CCK-8; assay type: cell-based, human
# Procedure: as §3
# mouse red blood cells = experiment: Haemolysis assay; assay type: cell-based; settings: MIC values against S. aureus ATCC 29213
# Procedure: Red blood cells (RBCs) from Kunming mice were used to evaluate the hemolytic toxicity of the selected AMPs. Fresh red blood cells were collected from mice and washed until the supernatant was completely cleared. Added 19-fold volume of PBS to prepare 2% RBC suspension. […] Afterward, the mixture was centrifuged at 1500 rpm for 10 min. Then transferred 30 µL supernatant to 96-well plate containing 70 µL PBS. The absorbance of the sample was measured at 450 nm by a microplate reader. PBS and 2% Triton X-100 was used as negative and positive control, respectively. The experiment was performed in triplicate and the hemolysis activity was calculated by the formula hemolysis = [(Absorbancesample- AbsorbancePBS)/(AbsorbanceTriton x-100-AbsorbancePBS)]×100%.
# [1] = tested on: four Gram-positive and five Gram-negative bacteria, including ESKAPE pathogens; assay type: cell-based
# Procedure: as §1, §2
# [2] = tested on: S. aureus clinical isolates (n = 40); assay type: cell-based
# Procedure: as §1, §2
# [3] = Table 1, S. enteritis S1, broth microdilution, read-out: MIC
# [4] = Staphylococcus aureus, ATCC29213, Table 1, S. aureus ATCC 29213, broth microdilution, CLSI M100-ED34, read-out: MIC
# [5] = Enterococcus faecalis, Table 1, E. faecalis J2, ermB, optrA, broth microdilution, read-out: MIC
# [6] = Enterococcus faecalis, JH22, Table 1, E. faecalis JH2-2, broth microdilution, read-out: MIC
# [7] = Enterococcus faecium, Table 1, E. faecium HFY01, broth microdilution, read-out: MIC
# [8] = Enterococcus faecalis, Table 1, E. faecalis ES01, ermB, vanB, broth microdilution, read-out: MIC
# [9] = Pseudomonas aeruginosa, Table 1, P. aeruginosa PA14, broth microdilution, read-out: MIC
# [10] = Acinetobacter baumannii, Table 1, A. baumannii AB11, broth microdilution, read-out: MIC
# [11] = Streptococcus agalactiae, Table 1, S. agalactiae DL03, ermB, broth microdilution, read-out: MIC
# [12] = Staphylococcus aureus, YZSA21, Table 1, S. aureus YZSA-21, ermC, broth microdilution, read-out: MIC
# [13] = Klebsiella pneumoniae, 91, Table 1, K. pneumoniae 9-1, broth microdilution, read-out: MIC
# [14] = Streptococcus pyogenes, Table 1, S. pyogenes DL02, ermB, broth microdilution, read-out: MIC
# [15] = Staphylococcus aureus, M1472, Table 1, S. aureus M147-2, ermB, tetL, cfr, broth microdilution, read-out: MIC
# [16] = Enterococcus faecium, Table 1, E. faecium MC38, ermB, optrA, broth microdilution, read-out: MIC
# [17] = Enterococcus faecium, Table 1, E. faecium QF31, ermB, cfr, broth microdilution, read-out: MIC
# [18] = Staphylococcus aureus, M921, Table 1, S. aureus M92-1, ermB, tetL, optrA, broth microdilution, read-out: MIC
# [19] = Staphylococcus aureus, YZSA24, Table 1, S. aureus YZSA-24, ermC, mecA, broth microdilution, read-out: MIC
# [20] = Staphylococcus aureus, YZSA15, Table 1, S. aureus YZSA-15, ermC, vanB, broth microdilution, read-out: MIC
# [21] = Escherichia coli, ATCC25922, Table 1, E. coli ATCC 25922, broth microdilution, read-out: MIC
# [22] = Acinetobacter baumannii, Table 1, A. baumannii 7979, broth microdilution, read-out: MIC
# [23] = Streptococcus suis, Table 1, S. suis SH0918, ermB, tetO, optrA, broth microdilution, read-out: MIC
smiles,measurement,setting,value
"CNC(C)C1CCC(N)C(OC2C(N)CC(N)C(OC3OCC(C)(O)C(NC)C3O)C2O)O1 (stereo not drawn) [GEN, gentamicin]",MIC,S. enteritis S1; [3],0.25 µg/mL
same,MIC,S. aureus ATCC 29213; [4],1 µg/mL
same,MIC,E. faecalis J2; [5],> 64 µg/mL
same,MIC,E. faecalis JH2-2; [6],4 µg/mL
same,MIC,E. faecium HFY01; [7],< 0.06 µg/mL
same,MIC,E. faecalis ES01; [8],> 64 µg/mL
same,MIC,P. aeruginosa PA14; [9],< 0.06 µg/mL
same,MIC,A. baumannii AB11; [10],< 0.06 µg/mL
same,MIC,S. agalactiae DL03; [11],16 µg/mL
same,MIC,P. aeruginosa PAO1,0.125 µg/mL
same,MIC,S. aureus YZSA-21; [12],0.5 µg/mL
same,MIC,K. pneumoniae 9-1; [13],> 64 µg/mL
same,MIC,S. pyogenes DL02; [14],1 µg/mL
same,MIC,S. aureus M147-2; [15],> 64 µg/mL
same,MIC,E. faecium MC38; [16],> 64 µg/mL
same,MIC,E. faecium QF31; [17],> 64 µg/mL
same,MIC,S. aureus M92-1; [18],> 64 µg/mL
same,MIC,S. aureus YZSA-24; [19],1 µg/mL
same,MIC,S. aureus YZSA-15; [20],0.5 µg/mL
same,MIC,E. faecalis SF23-1,8 µg/mL
same,MIC,E. coli ATCC 25922; [21],4 µg/mL
same,MIC,A. baumannii 7979; [22],> 64 µg/mL
same,MIC,S. suis SH0918; [23],16 µg/mL
same,MIC,"S. suis P1/7; Streptococcus suis, P1/7",4 µg/mL
"C[C@H]1c2cccc(O)c2C(=O)C2=C(O)[C@]3(O)C(=O)C(C(N)=O)=C(O)[C@@H](N(C)C)[C@@H]3[C@@H](O)[C@@H]21 [DOX, doxycycline]",MIC,S. enteritis S1; [3],> 64 µg/mL
same,MIC,S. aureus ATCC 29213; [4],0.25 µg/mL
same,MIC,E. faecalis J2; [5],16 µg/mL
same,MIC,E. faecalis JH2-2; [6],4 µg/mL
same,MIC,E. faecium HFY01; [7],< 0.06 µg/mL
same,MIC,E. faecalis ES01; [8],0.5 µg/mL
same,MIC,P. aeruginosa PA14; [9],16 µg/mL
same,MIC,A. baumannii AB11; [10],< 0.06 µg/mL
same,MIC,S. agalactiae DL03; [11],< 0.06 µg/mL
same,MIC,P. aeruginosa PAO1,8 µg/mL
same,MIC,S. aureus YZSA-21; [12],0.25 µg/mL
same,MIC,K. pneumoniae 9-1; [13],> 64 µg/mL
same,MIC,S. pyogenes DL02; [14],2 µg/mL
same,MIC,S. aureus M147-2; [15],16 µg/mL
same,MIC,E. faecium MC38; [16],16 µg/mL
same,MIC,E. faecium QF31; [17],16 µg/mL
same,MIC,S. aureus M92-1; [18],16 µg/mL
same,MIC,S. aureus YZSA-24; [19],0.5 µg/mL
same,MIC,S. aureus YZSA-15; [20],0.25 µg/mL
same,MIC,E. faecalis SF23-1,16 µg/mL
same,MIC,E. coli ATCC 25922; [21],1 µg/mL
same,MIC,A. baumannii 7979; [22],> 64 µg/mL
same,MIC,S. suis SH0918; [23],16 µg/mL
same,MIC,"S. suis P1/7; Streptococcus suis, P1/7",0.125 µg/mL
CC(C)C[C@H](NC(=O)[C@H](CCCCN)NC(=O)[C@H](Cc1c[nH]c2ccccc12)NC(=O)[C@H](CC(C)C)NC(=O)[C@H](CC(C)C)NC(=O)[C@H](CCCCN)NC(=O)[C@H](Cc1c[nH]c2ccccc12)NC(=O)[C@H](Cc1c[nH]c2ccccc12)NC(=O)[C@H](CCCCN)NC(=O)[C@H](CCCCN)NC(=O)[C@H](C)N)C(=O)N[C@@H](Cc1c[nH]c2ccccc12)C(=O)N[C@@H](CCCCN)C(=O)N[C@@H](CCCCN)C(=O)N[C@@H](C)C(=O)N[C@@H](CCCCN)C(=O)O [AMP_S4] (H-AKKWWKLLWKLWKKAK-OH),CC50,HEp-2; 48 h,35.16 µg/mL
same,CC50/MIC,"HEp-2; HEp-2, MIC values against S. aureus ATCC 29213",8.8
same,CC50,Caco-2; 48 h,15.82 µg/mL
same,CC50/MIC,"Caco-2; Caco-2, MIC values against S. aureus ATCC 29213",3.96
same,HC50/MIC,mouse red blood cells,4.56
same,MIC,S. enteritis S1,16 µg/mL
same,"MIC values, range",[1],2 to 16 µg/mL
same,"MICs, range over panel",[1],2 to 16 µg/mL
same,"MICs, range over clinical isolates",[2],4 to 32 µg/mL
same,MIC,S. aureus ATCC 29213; ATCC 29213,4 µg/mL
same,MIC,E. faecalis J2; J2,8 µg/mL
same,MIC,E. faecalis JH2-2; JH2-2,8 µg/mL
same,MIC,E. faecium HFY01; HFY01,4 µg/mL
same,MIC,E. faecalis ES01; ES01,4 µg/mL
same,MIC,P. aeruginosa PA14; PA14,8 µg/mL
same,MIC,A. baumannii AB11; AB11,2 µg/mL
same,MIC,S. agalactiae DL03; DL03,4 µg/mL
same,MIC,S. aureus YZSA-21; YZSA-21,4 µg/mL
same,MIC,K. pneumoniae 9-1; 9-1,16 µg/mL
same,MIC,S. pyogenes DL02; DL02,4 µg/mL
same,MIC,S. aureus M147-2; M147-2,4 µg/mL
same,MIC,E. faecium MC38; MC38,4 µg/mL
same,MIC,E. faecium QF31; QF31,4 µg/mL
same,MIC,S. aureus M92-1; M92-1,4 µg/mL
same,MIC,S. aureus YZSA-24; YZSA-24,16 µg/mL
same,MIC,S. aureus YZSA-15; YZSA-15,4 µg/mL
same,MIC,E. coli ATCC 25922; ATCC 25922,8 µg/mL
same,MIC,A. baumannii 7979; 7979,4 µg/mL
same,MIC,S. suis SH0918,4 µg/mL
same,MIC,S. suis P1/7,4 µg/mL
